Results on 18 compounds are retold here after PMC11768083, “Crude Drugs for Clearing Heat Contain Compounds Exhibiting Anti-Inflammatory Effects in Interleukin-1β-Treated Rat Hepatocytes” (Molecules, 2025).

The subject of series [1] is Il1r1 mRNA. Put plainly: RT-qPCR of Il1r1 mRNA in IL-1β-treated hepatocytes. The class given is cell-based, rat. As to conditions: with IL-1β; normalized to Ef1a mRNA; versus IL-1β alone. How it is done:
(§1) After acclimatization, the Wistar rats were euthanized by the intraperitoneal administration of an anesthetic combination of medetomidine hydrochloride, midazolam, and butorphanol tartrate. Rat livers were used to prepare hepatocytes as previously described. In brief, the liver was perfused with collagenase. The cells were resuspended in Williams’ E (WE) medium supplemented with 10% newborn calf serum, 10 nM dexamethasone, and 10 nM human insulin and seeded at 1.2 ×10^6 cells per 35 mm diameter dish. After the medium was replaced with serum-free WE medium, the cells were incubated overnight. The next day, the medium was replaced with WE medium containing 1 nM recombinant rat IL-1β [54] and/or a fraction or compound. The hepatocytes were further incubated at 37 °C for 4 h before RNA extraction or for 8 h before measuring the NO levels and performing a Western blot analysis of the cell lysates.
(§2) Hepatocytes were lysed in Sepasol I Super G solution (Nacalai Tesque, Inc.) to extract total RNA, which was purified using an RNAqueous Kit and a TURBO DNA-free Kit (Applied Biosystems, Austin, TX, USA). The resulting RNA was converted to cDNA, which was amplified by PCR in triplicate with primers, SYBR Green I, and the Thermal Cycler Dice Real-Time System (Takara Bio Inc.). Ct values were calculated by the ΔΔCt method and then normalized to elongation factor 1α (Ef1a) mRNA [18, 54]. […]
(Real-time PCR tracks product formation cycle by cycle.)

Series [2] has as its system Tnf mRNA. Put plainly: RT-qPCR of Tnf mRNA in IL-1β-treated hepatocytes. As to conditions: with IL-1β; normalized to Ef1a mRNA; versus IL-1β alone. Format: cell-based, rat. As for the experimental part:
as §1
(§3) Hepatocytes were lysed in Sepasol I Super G solution (Nacalai Tesque, Inc.) to extract total RNA, which was purified using an RNAqueous Kit and a TURBO DNA-free Kit (Applied Biosystems, Austin, TX, USA). The resulting RNA was converted to cDNA, which was amplified by PCR in triplicate with primers, SYBR Green I, and the Thermal Cycler Dice Real-Time System (Takara Bio Inc.). Ct values were calculated by the ΔΔCt method and then normalized to elongation factor 1α (Ef1a) mRNA [18, 54]. The mRNA levels normalized to the total RNA from the livers of the […] were set at 100%.

The subject of series [3] is primary-cultured rat hepatocytes. Description: LDH activity in the hepatocyte medium (cytotoxicity). As to conditions: for Cytotoxicity / LDH activity of the medium: hepatocytes, 8 h incubation; for LDH activity in the medium (cytotoxicity): at the concentrations of the NO assay, 8 h. The class given is cell-based. As for the experimental part:
(§4) After 8 h of incubation with 1 nM IL-1β and/or a fraction or compound, nitrite (a stable metabolite of NO) was measured in triplicate using the Griess method. The NO concentration in the medium alone was set at 0%, whereas the concentration in the medium including IL-1β alone was set at 100%. […] Cytotoxicity was monitored by estimating the LDH activity in the medium using LDH Cytotoxicity Detection Kits (Takara Bio Inc., Kusatsu, Japan). The Griess reagent was added to the medium and incubated at 20–23 °C for 5 min, and the absorbance at 540 nm was measured to determine the decrease in nitrite. The LDH activity of the whole-cell extract was assumed to be 100%, whereas the LDH activity of the medium alone was assumed to have no cytotoxicity (i.e., less than 5% of the LDH activity of the whole-cell extract).

Series [4] relates to NO production in IL-1β-treated rat hepatocytes. Description: NO production (nitrite, Griess method) in IL-1β-treated primary-cultured rat hepatocytes. As to conditions: for IC50: Rattus norvegicus, Hepatocyte. Format: cell-based. How it is done: as §1, §4
Series [5] deals with iNOS mRNA. Put plainly: RT-qPCR of iNOS mRNA in IL-1β-treated hepatocytes. The class given is cell-based, rat. As to conditions: with IL-1β; normalized to Ef1a mRNA; versus IL-1β alone. As for the experimental part:
as §1, §3

Series [6] has as its system NO production in IL-1β-treated rat hepatocytes. As to conditions: cited from earlier work.
For series [7], the system named is lymphotoxin β (Ltb) mRNA. Put plainly: RT-qPCR of Ltb mRNA in IL-1β-treated hepatocytes. As to conditions: with IL-1β, 4 h; normalized to Ef1a mRNA. The class given is cell-based, rat. How it is done:
as §1, §2

The subject of series [8] is iNOS protein. Description: Immunoblot of iNOS protein in IL-1β-treated hepatocytes. As to conditions: with IL-1β, 8 h; β-tubulin control. The class given is cell-based, rat. How it is done:
as §1
Hepatocyte lysates were prepared, resolved on a 10% sodium dodecyl sulfate–polyacrylamide gel, and transferred onto a membrane, as previously described. […] The protein of interest was visualized by ECL Western blotting Detection Reagents (Cytiva, Tokyo, Japan) and detected using an Amersham Imager 600 (Cytiva).
Background: A western blot detects proteins with antibodies after separation by electrophoresis.

In series [9] the test system is iNOS antisense transcript (iNOS-AS). Put plainly: RT-qPCR of iNOS antisense transcript in IL-1β-treated hepatocytes. The class given is cell-based, rat. As to conditions: with IL-1β; RNA 3 h after addition. How it is done:
as §1, with “The hepatocytes were further incubated at 37 °C for 4 h before RNA extraction or for 8 h before measuring the NO levels and performing a Western blot analysis of the cell lysates.” left out
as §3

In series [10] the test system is rat liver injuries caused by ischemia–reperfusion and partial hepatectomy. Also noted: method as in PMID 38727775. As to conditions: cited from earlier work.
Series [11] concerns iNOS antisense transcript (iNOS-AS). Also noted: method as in PMID 28681120, doi:10.7243/2050-0874-1-2, PMID 27774888. As to conditions: cited from earlier work.
Series [12] relates to Il1r1 mRNA. As to conditions: cited from earlier work.
In series [13] the test system is LPS-treated RAW264.7 cells. Also noted: method as in PMID 38339007. As to conditions: read-out: IC50 for NO production; cited from earlier work.
[14] abbreviates: 1 nM IL-1β, 8 h, means ± SDs, at least three experiments, read-out: IC50 (μM) for NO production in IL-1β-stimulated hepatocytes.
Setting [15] is: constituents of Atractylodes chinensis rhizomes.
Setting [16] is: means ± SDs, read-out: IC50 (μM) for NO production in IL-1β-stimulated hepatocytes.

Entries after “also recorded” stand apart in the source; their conditions may differ. Where two headings read alike, the source gives them in different places.

For orientation: IC50 means the concentration that gives 50% inhibition. Turning to `COc1cc(C2OCC3C(c4ccc(OC)c(OC)c4)OCC23)ccc1O` (single isomer, unassigned; (+)) [(+)-Phillygenin, (+)-phillygenin], the “Il1r1 mRNA level” value in series [1] was “decreased”. The “Tnf mRNA level” value in series [2] is “decreased”. Also, in series [3], the “Cytotoxicity / LDH activity of the medium” value (“Cytotoxicity / LDH activity” below) is given as “background LDH activity at concentrations up to 300 μM; also recorded: without showing cytotoxicity”. Moreover, the IC50 in [4] (setting [14]) came to 193 ± 47.6 µM. The “iNOS mRNA level” value in series [5] is listed as “decreased”.
With `CC1=CCC[C@H](C)[C@@]12CC[C@@H](C(C)(C)O)C2` [(+)-hinesol], the “IC50 for inhibition of NO production in hepatocytes” value in series [6] (setting [15]) is on record as “could not be calculated”.
`C=C[C@H](/C=C\c1ccc(O)cc1)c1ccc(O)cc1` [(−)-Nyasol, (−)-nyasol]: the “Tnf mRNA level” value in series [2] was “significantly reduced”. For the same compound, in series [7], the “Ltb mRNA level” value was “significantly reduced”. Moreover, in [3], the “LDH activity in the medium (cytotoxicity)” value is listed as < 5 % of the activity of the whole-cell extract. For the same compound, in series [4] (setting [14]), the IC50 is 18.3 ± 2.99 µM. In addition, the “iNOS mRNA level” value in [5] is “significantly decreased”.
In the case of `O=c1cc(-c2ccccc2)oc2cc(O)c(O)c(O)c12` [Baicalein, baicalein], the iNOS protein level entry in [8] was “reduced”. For the same compound, the iNOS-AS level result in series [9] is “inhibited iNOS-AS in a concentration-dependent manner”. Also, in series [3], the “LDH activity in the medium (cytotoxicity)” value is < 5 % of the activity of the whole-cell extract. The half-maximal inhibitory concentration (IC50) in [4] (setting [14]) came to 16.8 ± 7.93 µM. Moreover, the Liver injury result in series [10] is “attenuated”. Moreover, the “iNOS mRNA level” value in [5] is “reduced”.
Consider `O=C(O)[C@H]1O[C@@H](Oc2cc3oc(-c4ccccc4)cc(=O)c3c(O)c2O)[C@H](O)[C@@H](O)[C@@H]1O` [Baicalin], for which the “IC50 relative to that of baicalein” value in series [4] (IL-1β-treated hepatocytes, greater than baicalein) was 3.3 fold. The half-maximal inhibitory concentration (IC50) in [4] (authors' unpublished data (A.F., K.I., M.N.), read-out: IC50 for NO production in IL-1β-treated hepatocytes) worked out at 55 µM.
Take `COc1ccc2cc3[n+](cc2c1OC)CCc1cc2c(cc1-3)OCO2` [Berberine]: in series [6] (setting [16]), the IC50 is 12 ± 3.4 µM.
As for `O=C(/C=C/c1ccc(O)c(O)c1)O[C@@H]1C[C@](O)(C(=O)O)C[C@@H](O)[C@H]1O` [Chlorogenic acid], in series [11], the iNOS-AS level result is “reducing iNOS-AS”. Besides, in [6] (setting [16]), the IC50 was 652 ± 114 µM.
Take `COC(=O)C1=CO[C@@H](O)[C@@H]2C(CO)=CC[C@H]12` [Genipin, genipin]: in [11], the iNOS-AS level entry is “reducing iNOS-AS”. For the same compound, the IC50 in series [4] (setting [14]) was determined as 4.4 ± 0.85 µM.
Consider `O=c1cc(-c2ccc(Oc3ccc(-c4cc(=O)c5c(O)cc(O)cc5o4)cc3O)cc2)oc2cc(O)cc(O)c12` [Loniflavone, loniflavone], for which the “Il1r1 mRNA level” value in [1] is “significantly decreased”. Moreover, the “Tnf mRNA level” value in series [2] was “decreased”. Moreover, the “Cytotoxicity / LDH activity” value in series [3] is on record as “Cytotoxicity was not observed”. In addition, the IC50 in series [4] (setting [14]) came out at 1.64 ± 0.17 µM. Moreover, in [5], the “iNOS mRNA level” value is on record as “decreased”.
In the case of `CC1(C)OC(=O)C=C[C@]2(C)[C@H]3CC[C@@]4(C)[C@H](c5ccoc5)OC(=O)[C@H]5O[C@]54[C@]3(C)C(=O)C[C@@H]12` [Obakunone], the iNOS-AS level result in series [11] was “reducing iNOS-AS”. Besides, the IC50 in [6] (setting [16]) was 2.6 ± 1.1 µM.
For `COc1cc(O)c2c(c1)O[C@H](c1ccc(O)cc1)CC2=O` [Sakuranetin, (S)-(–)-4′,5-dihydroxy-7-methoxyflavanone], in series [12], the Il1r1 gene expression result is reported as “decreases”.
For the compound `CC(=O)Oc1ccccc1C(=O)O` [aspirin], the Il1r1 gene expression entry in series [12] (rat hepatocytes) was “suppress”.
On to `C/C=C/C#CC#C/C=C/c1ccco1` [atractylodin], for which, in series [6] (constituents of Atractylodes chinensis rhizomes, read-out: IC50 for inhibition of NO production in hepatocytes), the half-maximal inhibitory concentration (IC50) was 8.25 µM.
As for `C=C(C)[C@@H]1CC[C@]2(C(=O)O)CC[C@]3(C)[C@H](CC[C@@H]4[C@@]5(C)CC[C@H](O)C(C)(C)[C@@H]5CC[C@]43C)[C@@H]12` [betulinic acid, reference compound], in series [3], the “Cytotoxicity / LDH activity” value was “increased LDH activity in a concentration-dependent manner”.
Consider `COC(=O)C1=CO[C@@H](O[C@@H]2O[C@H](CO)[C@@H](O)[C@H](O)[C@H]2O)[C@@H]2C(CO)=CC[C@H]12` [geniposide], for which, in series [4] (IL-1β-treated hepatocytes), the “Effect on IL-1β-induced NO production” value is recorded as “did not decrease NO production”. Moreover, the “Inhibition of NO production” value in series [4] (up to a final concentration of 800 μM) was “did not inhibit NO production”. The IC50 in [13] was 136 µM.
In the case of `CC(C(=O)O)c1ccc(CC2CCCC2=O)cc1` (centres unmarked) [loxoprofen], in series [12] (rat hepatocytes), the Il1r1 gene expression result is “suppress”.
Turning to `CC1(C)CC[C@]2(C(=O)O)CC[C@]3(C)C(=CC[C@@H]4[C@@]5(C)CC[C@H](O)C(C)(C)[C@@H]5CC[C@]43C)[C@@H]2C1` [oleanolic acid, reference compound], the “Cytotoxicity / LDH activity” value in [3] is listed as “increased LDH activity in a concentration-dependent manner”.
Consider `C=C1CCC[C@]2(C)CC[C@@H](C(C)(C)O)C[C@@H]12` [β-eudesmol], for which, in [6] (setting [15]), the “IC50 for inhibition of NO production in hepatocytes” value is listed as “could not be calculated”.
